Patent US20160157479A1, “ANTIFUNGAL COMPOSITION AND METHOD” (OMEX INTERNATIONAL LIMITED, priority 2013, published 2016)

How the values were obtained:
[1] = Light-fastness study (Oxynex ST photostabiliser); format: physicochemical; conditions: 0.1% vanillin, light box 5000 lux
Procedure: A composition without any photostabiliser was used as a base composition (no photostabiliser).
Method: Each formulation was diluted with water to 0.1% vanillin (as pure) and 5 mL was applied by pipette to a glass petri dish. The dishes were left to stand in a light box fitted with 2×40 W fluorescent daylight bulbs with an illumination intensity of 5000 lux. The dishes were extracted with methanol and made up to 25 mL in a volumetric flask after 3 and 5 days. Samples were then analysed by HPLC.

[2] = Light-fastness study, addition of ascorbic acid; format: physicochemical; conditions: 0.1% vanillin, 1500 Lux 5 hours per day
Procedure: The formulations used for these experiments are described in TABLE 10. Oxynex ST (5%) and Oxynex ST (5%) with ascorbic acid (1%) were added to the composition to determine the effect on photostability.
(§1) Method: Formulations were diluted with water to 0.1% vanillin and 5 mL transferred by pipette to a 100 mL crystallising dish. All dishes were placed in a light box containing two 60 cm high efficiency 24 W fluorescent bulbs housed in a canopy to provide bright, full spectrum lighting closely resembling daylight (6400 Kelvin). The dishes were covered with muslin sheets to reduce the intensity of the light to 1500 Lux on a programme of 5 hours per day. At specific time intervals the dishes were extracted and made up to volume with methanol. Samples were analysed by HPLC.

[3] = Light-fastness study, ratio of Oxynex ST:ascorbic acid; format: physicochemical; conditions: 0.1% vanillin, 1500 Lux 5 hours per day
Procedure: The formulations used for these experiments are described in TABLE 12. Various ratios of Oxynex ST and ascorbic acid were used in the composition to determine the effect on photostability.
as §1

[4] = Photodecomposition study; format: physicochemical; conditions: 0.1% vanillin
Procedure: The following samples were prepared by diluting down the specified composition with water: • VS, vanillin solution in water @ 0.1% vanillin; • 0.4% dilution of RBEF-024 (0.1% vanillin); and • 0.4% dilution of RBEF-030 (0.1% vanillin). • 5 ml of the diluted material was pipetted into 3 pyrex crystallisation dishes; the surface was covered with muslin and the samples placed in a light box for 1, 3 and 5 days respectively with high intensity white light applied for 5 hours out of every 24 hours.
As a control, three equivalent samples were placed in crystallisation dishes which were placed in the dark (inside a cupboard).
At the end of each time period the contents of the crystallisation dishes were washed out with 4×5 mL methanol (magnetic stirrer used at each addition to dissolve any solid vanillin) and the washings transferred to a 25 mL volumetric flask and made up to volume with methanol.
As an initial control (t=0 days), 5 mL of each dilution was pipetted into a 25 mL volumetric flask and made up to volume with methanol.

[5] = tested on: cabbage leaf discs; assay: Effect of composition on leaf-penetration; conditions: 0.1% vanillin
Procedure: 14.5 cm cabbage leaf discs were cut and placed in a petri dish and treated with a diluted composition. At the same time a second petri dish (control) was treated with the same diluted composition with no leaf present and stored in the dark for the duration of the test.
Test time periods were 1, 2, 4, 6 & 24 hours after application. The application was performed using an artist's air brush at low pressure to give a deposit of circa 2 g of spray diluted composition.
At the appropriate time period, the leaf disc was washed with methanol and the washings collected and made up to 25 mL with methanol. The appropriate control petri dish was also washed with methanol and the volume made up to 25 mL.
For each treatment a spray control was prepared by diluting 5 mL of spray liquid to 50 mL in a volumetric flask with methanol. The spray control is applied to the leaf and is used to determine the amount of vanillin applied to the leaf surface for each test.
The amount of vanillin washed from the leaf surface was subtracted from the amount washed from the petri dish control to determine how much of the vanillin has moved into the leaf sub-surface layer as a function of the formulation.

COc1cc(C=O)ccc1O [0.1% Vanillin Technical in water, 4-Hydroxy-3-methoxybenzaldehyde]
Loss (%) ([1]; 3 days): 6.18%
Vanillin ([1]; 3 days): 177.65 mg/L
Loss (%) ([1]; 5 days): 8.49%
Concentration (mg/dish) ([2]; 0 days): 5.87 mg/dish
Loss (%) ([2]; 0 days): 0.00%
Concentration (mg/dish) ([2]; 1 day): 5.85 mg/dish
Loss (%) ([2]; 1 day): 0.34%
Loss (%) ([2]; 3 days): 3.92%
Concentration (mg/dish) ([2]; 7 days): 5.53 mg/dish
Loss (%) ([2]; 7 days): 5.79%
Concentration (mg/dish) ([2]; 14 days): 5.22 mg/dish
Vanillin (mg/L) 2 ([3]; 0 days): 200.48 mg/L
Vanillin mg/dish ([3]; 0 days): 5.02 mg/dish
Loss (%) ([3]; 1 day): −1.19%
Vanillin mg/dish ([3]; 1 day): 4.96 mg/dish
Loss (%) ([3]; 2 days): −0.11%
Vanillin mg/dish ([3]; 2 days): 4.96 mg/dish
Loss (%) ([3]; 3 days): −1.17%
Vanillin mg/dish ([3]; 3 days): 4.90 mg/dish
% Vanillin lost by photo-decomposition ([4]; 0 days): 0.0%
% Vanillin lost by photo-decomposition ([4]; light box 5 of 24 hours, 1 day): +0.08%
% Vanillin lost by photo-decomposition ([4]; light box 5 of 24 hours, 3 day): +1.50%
% Vanillin lost by photo-decomposition ([4]; light box 5 of 24 hours, 5 day): +2.08%
% Vanillin penetrating through leaf cuticle surface ([5]; 1 hour after application): 0.4%
% Vanillin penetrating through leaf cuticle surface ([5]; 2 hour after application): 2.5%
% Vanillin penetrating through leaf cuticle surface ([5]; 4 hour after application): 1.7%
% Vanillin penetrating through leaf cuticle surface ([5]; 6 hour after application): 5.0%
% Vanillin penetrating through leaf cuticle surface ([5]; 24 hour after application): 8.5%
